Experimental findings from ChEMBL document CHEMBL3259525, “Plasmepsin inhibitory activity and structure-guided optimization of a potent hydroxyethylamine-based antimalarial hit” (ACS Med Chem Lett, 2014) are described below.

One experiment concerns the target Plasmepsin II (Plasmodium falciparum, UniProt P46925). In words: Inhibition of Plasmodium falciparum plasmepsin-2 using DABCYL-Glu-Arg-Nle-Phe-Leu-Ser-Phe-Pro-EDANS as substrate preincubated for 30 mins by FRET assay.
Another experiment has as its target Cathepsin D (Homo sapiens, UniProt P07339). In words: Inhibition of human cathepsin-D using DABCYL-Glu-Arg-Nle-Phe-Leu-Ser-Phe-Pro-EDANS as substrate preincubated for 30 mins by FRET assay.
For the next experiment, the target named is Plasmepsin I (Plasmodium falciparum, UniProt P39898). In words: Inhibition of Plasmodium falciparum plasmepsin-1 using DABCYL-Glu-Arg-Nle-Phe-Leu-Ser-Phe-Pro-EDANS as substrate preincubated for 30 mins by FRET assay.
Sequence of Plasmepsin I (P39898 whole entry): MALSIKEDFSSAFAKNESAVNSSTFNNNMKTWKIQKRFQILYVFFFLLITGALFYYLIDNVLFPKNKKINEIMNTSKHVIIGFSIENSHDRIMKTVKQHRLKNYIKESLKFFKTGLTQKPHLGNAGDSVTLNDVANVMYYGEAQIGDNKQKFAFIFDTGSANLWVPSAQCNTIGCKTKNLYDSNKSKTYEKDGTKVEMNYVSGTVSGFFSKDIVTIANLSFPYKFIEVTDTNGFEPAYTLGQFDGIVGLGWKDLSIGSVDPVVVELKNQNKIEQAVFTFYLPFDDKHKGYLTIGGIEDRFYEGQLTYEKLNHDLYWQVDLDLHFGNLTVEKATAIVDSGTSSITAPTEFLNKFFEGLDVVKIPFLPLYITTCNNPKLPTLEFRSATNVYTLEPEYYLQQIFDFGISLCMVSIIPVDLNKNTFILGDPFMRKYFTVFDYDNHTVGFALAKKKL
Experiment [1] in a line: Inhibition of Plasmodium falciparum plasmepsin-4 using DABCYL-Glu-Arg-Nle-Phe-Leu-Ser-Phe-Pro-EDANS as substrate preincubated for 30 mins by FRET assay.
Experiment [2] relates to Plasmodium falciparum. Briefly: Antimalarial activity against blood-stage Plasmodium falciparum 3D7 assessed as inhibition of parasite growth after 96 hrs by SYBR Green I assay. Type of experiment: functional, organism-based. The conditions noted are these: 3D7, 96 h.
Experiment [3] concerns Plasmodium falciparum. In words: Antimalarial activity against intra erythrocytic Plasmodium falciparum assessed as inhibition of parasite growth. It counts as functional, organism-based.

Sequence of Cathepsin D (P07339 65-162 limits assumed): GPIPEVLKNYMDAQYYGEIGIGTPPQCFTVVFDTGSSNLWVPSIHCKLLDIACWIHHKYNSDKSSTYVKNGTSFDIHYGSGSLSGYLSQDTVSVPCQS
Sequence of Cathepsin D (P07339 169-412 limits assumed): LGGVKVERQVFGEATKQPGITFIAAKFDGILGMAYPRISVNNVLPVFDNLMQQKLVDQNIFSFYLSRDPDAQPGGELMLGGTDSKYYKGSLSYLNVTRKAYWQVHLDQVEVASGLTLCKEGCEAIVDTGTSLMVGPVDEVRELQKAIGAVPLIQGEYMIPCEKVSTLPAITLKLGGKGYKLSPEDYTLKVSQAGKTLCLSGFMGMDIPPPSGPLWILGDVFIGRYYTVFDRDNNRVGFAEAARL
Sequence of Plasmepsin II (P46925 whole entry): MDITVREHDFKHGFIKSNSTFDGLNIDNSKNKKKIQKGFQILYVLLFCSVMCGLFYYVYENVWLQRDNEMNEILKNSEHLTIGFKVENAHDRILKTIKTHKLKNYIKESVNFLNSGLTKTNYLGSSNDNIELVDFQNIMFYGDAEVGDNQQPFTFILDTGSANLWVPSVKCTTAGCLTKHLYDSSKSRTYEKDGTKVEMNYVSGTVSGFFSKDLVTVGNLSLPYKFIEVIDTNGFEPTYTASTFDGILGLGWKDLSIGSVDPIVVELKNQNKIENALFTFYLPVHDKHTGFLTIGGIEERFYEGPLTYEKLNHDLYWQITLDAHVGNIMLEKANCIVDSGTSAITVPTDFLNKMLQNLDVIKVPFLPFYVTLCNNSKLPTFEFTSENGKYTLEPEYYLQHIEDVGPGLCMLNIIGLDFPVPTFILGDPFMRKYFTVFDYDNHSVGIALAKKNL

One may read the IC50 as the concentration that inhibits the measured activity by half. With `CCCN(CCC)C(=O)c1cc(C(=O)N[C@@H](Cc2ccccc2)[C@H](O)CNC(C)(C)c2cccc(OC)c2)cc(-c2ccccc2)c1`, the IC50 against Plasmepsin II stood at 72 nM; against Cathepsin D, 54 nM; at Plasmepsin I, 250 nM; in experiment [1], 6 nM; with Plasmodium falciparum [2] it was 2 nM.
`COc1cccc(C(C)(C)NC[C@@H](O)[C@H](Cc2ccccc2)NC(=O)c2cc(C(N)=O)cc(N3CCCCC3)c2)c1`: the concentration for half-maximal inhibition (IC50) amounted to 4400 nM on Plasmepsin II, 500 nM against Cathepsin D, 7600 nM against Plasmepsin I and 170 nM in experiment [1].
As for `CCCN(CCC)C(=O)c1cc(C(=O)N[C@@H](Cc2ccccc2)[C@H](O)CNC(C)(C)c2cccc(OC)c2)cc(C2CCCCC2)c1`, the IC50 worked out at 36 nM against Plasmepsin II, 19 nM against Cathepsin D, 200 nM on Plasmepsin I and 25 nM in experiment [1].
On to `COc1cccc(C(C)(C)NC[C@@H](O)[C@H](Cc2ccccc2)NC(=O)c2cc(C(=O)N3CCCC3)cc(N3CCCCC3)c2)c1`, for which the IC50 against Plasmepsin II was 500 nM; against Cathepsin D, 38 nM; on Plasmepsin I, 1600 nM; in experiment [1], 110 nM.
On the same counts, the results for `CCCNC(=O)c1cc(C(=O)N[C@@H](Cc2ccccc2)[C@H](O)CNC(C)(C)c2cccc(OC)c2)cc(N2CCCCC2)c1` are 500 nM, 110 nM, 750 nM and 38 nM.
For the compound `CCCN(CCC)C(=O)c1cc(C(=O)N[C@@H](Cc2ccccc2)[C@H](O)CNC(C)(C)c2cccc(O)c2)cc(N2CCCCC2)c1`, the IC50 at Plasmepsin II came to 100 nM; at Cathepsin D, 40 nM; at Plasmepsin I it was 360 nM; in experiment [1], 19 nM.
As to `CCCN(CCC)C(=O)c1cc(C(=O)N[C@@H](Cc2ccccc2)[C@H](O)CNCc2cccc(OC)c2)cc(N2CCCCC2)c1`, the IC50 at Plasmepsin II amounted to 600 nM; at Cathepsin D it was 200 nM; against Plasmepsin I, 6100 nM; in experiment [1], 180 nM.
In the case of `CCCN(CCC)C(=O)c1cc(C(=O)N[C@@H](Cc2ccccc2)[C@H](O)CNC(C)(C)c2cccc(OC)c2)cc(N2CCCCS2(=O)=O)c1`, the IC50 in the experiment on Plasmodium falciparum [3] is 30 nM; on Plasmepsin II, 150 nM; against Cathepsin D it was 43 nM; against Plasmepsin I, 700 nM; in experiment [1], 29 nM; with Plasmodium falciparum [2], 2 nM.
As for `CCCN(CCC)C(=O)c1cc(C(=O)N[C@@H](Cc2ccccc2)[C@H](O)CNC(C)(C)c2cncc(OC)c2)cc(N2CCCCC2)c1`, the half-inhibitory concentration (IC50) against Plasmepsin II was 190 nM; at Cathepsin D, 68 nM; against Plasmepsin I it was 600 nM; in experiment [1], 23 nM.
`CCCN(CCC)C(=O)c1cc(C(=O)N[C@@H](Cc2ccccc2)[C@H](O)CNC(C)(C)c2ccccc2)cc(N2CCCCS2(=O)=O)c1`: the IC50 against Plasmepsin II worked out at 320 nM; against Cathepsin D, 120 nM; against Plasmepsin I, 2300 nM; in experiment [1], 48 nM.
As to `CCCN(CCC)C(=O)c1cc(C(=O)N[C@@H](Cc2ccccc2)[C@H](O)CNC(C)(C)c2cccc(OC)c2)cc(N2CCCC2)c1`, the IC50 on Plasmepsin II is 120 nM; at Cathepsin D it was 32 nM; against Plasmepsin I, 430 nM; in experiment [1] it was 7 nM; with Plasmodium falciparum [2], 4 nM.
As to `CCCN(CCC)C(=O)c1cc(C(=O)N[C@@H](Cc2ccccc2)[C@H](O)CNCc2cccc(OC)c2)cc(N2CCCCS2(=O)=O)c1`, the IC50 at Plasmepsin II was determined as 2700 nM; against Cathepsin D, 360 nM; at Plasmepsin I it was 18000 nM; in experiment [1] it was 200 nM.
Take `CCCN(CCC)C(=O)c1cc(C(=O)N[C@@H](Cc2ccccc2)[C@H](O)CNC(C)(C)c2ccccn2)cc(N2CCCCC2)c1`: the IC50 stood at 800 nM against Plasmepsin II, 350 nM at Cathepsin D, 4100 nM against Plasmepsin I and 250 nM in experiment [1].
`CCCN(CCC)C(=O)c1cc(C(=O)N[C@@H](Cc2ccccc2)[C@H](O)CNC(C)(C)c2cccnc2)cc(N2CCCCC2)c1`: the IC50 was 190 nM on Plasmepsin II, 140 nM on Cathepsin D, 350 nM against Plasmepsin I and 64 nM in experiment [1].
On the same counts, the results for `CCCN(CCC)C(=O)c1cc(C(=O)N[C@@H](Cc2ccccc2)[C@H](O)CNC2(c3cccc(OC)c3)CC2)cc(N2CCCCC2)c1` are 150 nM, 100 nM, 330 nM and 25 nM.
As to `CCCN(CCC)C(=O)c1cc(C(=O)N[C@@H](Cc2ccccc2)[C@H](O)CNC(C)(C)c2ccncc2)cc(N2CCCCC2)c1`, the IC50 amounted to 270 nM at Plasmepsin II, 170 nM at Cathepsin D, 470 nM at Plasmepsin I and 90 nM in experiment [1].
For `CCCN(CCC)C(=O)c1cc(C(=O)N[C@@H](Cc2ccccc2)[C@H](O)CNC(C)(C)c2cccc(OC)c2)cc(N2CCCCC2)c1`, the half-inhibitory concentration (IC50) against Plasmepsin II is 70 nM; at Cathepsin D, 42 nM; against Plasmepsin I, 300 nM; in experiment [1] it was 24 nM; in the experiment with Plasmodium falciparum [2], 6 nM.
Consider `CCCN(CCC)C(=O)c1cc(C(=O)N[C@@H](Cc2ccccc2)[C@@H](O)CNC(C)(C)c2ccccc2)cc(N2CCCCS2(=O)=O)c1`, for which the IC50 on Plasmepsin II turned out to be 24000 nM; against Cathepsin D, 5800 nM; against Plasmepsin I, 45000 nM; in experiment [1], 720 nM.
For `CCCN(CCC)C(=O)c1cc(C(=O)N[C@@H](Cc2ccccc2)[C@H](O)CNC(C)(C)c2ccccc2)cc(N2CCCCC2)c1` the same measures were 110 nM, 51 nM, 380 nM and 23 nM.
Consider `CCCN(CCC)C(=O)c1cc(C(=O)N[C@@H](Cc2ccccc2)[C@@H](O)CNC(C)(C)c2cccc(OC)c2)cc(N2CCCCS2(=O)=O)c1`, for which the IC50 came out at 14000 nM on Plasmepsin II; 4400 nM at Cathepsin D; 18000 nM at Plasmepsin I; 470 nM in experiment [1]; 200 nM with Plasmodium falciparum [2].
